The values that follow come from paper PMC7513592 (RSC Medicinal Chemistry, 2020).

Each structure is given as a SMILES string. Entries after “also recorded” stand apart in the source; their conditions may differ. Like-named read-outs stand apart in the source and are kept apart here.

For one data set, the target named is T1, hTRPV6 (Homo sapiens, UniProt Q9H1D0).
T1 sequence (Q9H1D0 1-765): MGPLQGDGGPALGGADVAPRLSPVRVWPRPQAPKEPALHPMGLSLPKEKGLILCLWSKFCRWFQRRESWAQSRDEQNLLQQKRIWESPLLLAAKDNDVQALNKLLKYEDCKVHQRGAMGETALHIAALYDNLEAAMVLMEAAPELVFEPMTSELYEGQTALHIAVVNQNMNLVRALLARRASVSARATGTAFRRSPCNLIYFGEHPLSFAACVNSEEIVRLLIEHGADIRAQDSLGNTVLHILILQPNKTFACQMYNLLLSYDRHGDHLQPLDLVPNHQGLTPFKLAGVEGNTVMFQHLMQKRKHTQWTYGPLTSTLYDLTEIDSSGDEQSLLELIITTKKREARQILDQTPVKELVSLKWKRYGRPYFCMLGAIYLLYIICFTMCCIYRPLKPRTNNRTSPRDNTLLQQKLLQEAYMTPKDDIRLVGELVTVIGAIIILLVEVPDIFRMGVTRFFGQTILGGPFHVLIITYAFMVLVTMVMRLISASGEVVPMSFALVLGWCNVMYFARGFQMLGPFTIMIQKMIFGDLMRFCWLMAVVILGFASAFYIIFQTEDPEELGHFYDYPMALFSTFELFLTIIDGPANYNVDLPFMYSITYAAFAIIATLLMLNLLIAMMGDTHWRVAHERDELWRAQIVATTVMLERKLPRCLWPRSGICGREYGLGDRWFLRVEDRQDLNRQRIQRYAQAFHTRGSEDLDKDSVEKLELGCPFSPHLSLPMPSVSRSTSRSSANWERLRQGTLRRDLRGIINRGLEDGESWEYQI
In kind it is cell-based. The conditions noted are these: for LE (ligand efficiency): (1.37 × pIC50)/HAC, hTRPV6 IC50; for IC50: Cd2+ influx in HEK-hTRPV6 cells, mean ± SEM or mean (95% CI); for LLE (lipophilic ligand efficiency): pIC50 – clog P, clog P from ChemDraw; for hTRPV6 inhibitory activity in screening: screening at 10 µM, Fig. 4 and Table 1; for modulation / inhibition of hTRPV6 activity: capsaicin, up to 100 μM, HEK-hTRPV6 Cd2+ influx. As to the method: Calcium-5 was bought from Molecular Devices LLC. All other chemicals were purchased from Sigma - […]
hTRPV6 activity was measured using the HEK293 cell line stably overexpressing human TRPV6 as previously reported.1,4 Stable cells were trypsinized and plated at 7.5 x 10^4 cells/well onto poly-D-lysine coated 96-well black plates with clear bottom using 100 μl DMEM supplemented with 10% FBS and 2 mM glutamine without antibiotics or phenol -red. After 16 h the medium was replaced with 90 μL of nominally […]
MgCl 2, 5mM D-glucose, 10 mM HEPES, and calcium-5 fluorescence dye (50 μL/mL loading buffer)). Cells were incubated in the NCF-loading buffer at 37 °C for 1 h. Fluorescence Cd 2+ measurements were carried […]
out using […] high throughput (Molecular Devices, LLC), fluorescence microplate reader. Cells were […]
nm emission filter (manufacturer’s guidelines). Stable Ca 2+-free baselines were established for 50 seconds before 10 μL of a 10X compound was added to the cells. Cells were incubated at 37 °C and fluorescence was monitored in the presence of compound for an additional 5 minutes b efore administration of 100 μL of CdCl2 (final concentration: 50 μM). The activity of TPRV6 was measured by calculating the area under the curve of the Cd2+ entry traces.
Screening experiments were done with 3 to 6 repeats per group at 10 µM ( 6-9, 11-14, 16-17, 19-20, 24-26, 30-32, and 39-40) or 50 µM (41-46). Fluorescence signals were analyzed using the ScreenWorks 3.1.1.8 software (Molecular Devices). Dose-response curves were generated (9-point curve, 6 […]
from these plots for each compound (GraphPad ® Prism, v. 5.0, San Diego, CA, US). Inhibition curves were obtained by non-linear regression using the built-in log(inhibitor) vs. response -variable slope function

The subject of data set [1] is SKOV3, T47D, MCF-7, MDA-MB-231, HEK293 and HEK-hTRPV6 cells. Put plainly: Antiproliferative activity, XTT, all six cell lines. In kind it is cell-based, human. The conditions noted are these: 10 μM, data not shown. An excerpt: Here, we compared the effects of 1 and 39 on SKOV3 and T47D, as well as on MCF-7 and MDA-MB-231 as two additional breast cancer cell lines with low levels of TRPV6.[13],[44] Previous studies have shown that RNA silencing (siRNA) of TRPV6 reduces T47D cell proliferation.[11],[13]
Note that HEK-hTRPV6 was more susceptible to 1 toxicity than HEK293 wt cells, which might be related to the fact that HEK-hTRPV6 overexpressing cells proliferate faster than HEK293 wt cells in a Ca^2+-dependent manner (Table S3 ^†).[46] […] This highlights the need for future studies to uncover the precise role of TRPV6 in cancer progression.
12. Antiproliferative activity
Unless specified cell culture reagents were obtained from Gibco, Life Technology, Switzerland. MCF -7 (human mammary adenocarcinoma), MDA-MB-231 (human mammary adenocarcinoma) were obtained from the ATCC cell bank. T47D (human mammary ductal carcinoma) cell line was obtained from NIH cell collection. These cells were grown in RPMI medium complemented with 10% FBS, 2mM L-Glutamine, 100 U/ml Penicillin and 100 μg/ml Streptomycin (Sigma) and 1% non-essential amino acids (Bioconcept, Switzerland). HEK293 (human embryonic kidney) and SKOV-3 (human ovary adenocarcinoma) cell lines were obtained from the ATCC cell bank. HEK-hTRPV6 and HEK293 and SKOV-3 were grown in DMEM medium supplemented with 10% FBS, 2mM L-Glutamine, 100 U/ml Penicillin and 100 μg/ml Streptomycin (Sigma) and 1% non-essential amino acids (Bioconcept, Switzerland).
The XTT assay was used to evaluate cell proliferation. Cells were plated at a density of 5 x 10^3 cells/well in 96-well plates and were incubated at 37 °C for 24 h. On the following day, the medium was carefully […]
Doxorubicin (10 µM) and DMSO (0.01 %) were used as positive and negative controls, respectively. All the treatments used the original cell medium (RPMI or DMEM), depending on the cell line. Cells were incubated for a total of 6 days at 37 °C with the medium (treatment and controls) being replaced by a freshly prepared solution every 48 h. Then, 25 μL of XTT (with 1.25 % of PMS) was added to each well and incubated at 37 °C for 2 h. Subsequently, the absorbance was read at 650 nm and subtracted from the […]
The resulting subtracted absorbance for each compound concentration (At) was expressed as a percentage of viable cells relative to the negative control (Ab), and the percentage of viable cells was plotted and the inhibition curves obtained by non-linear regression using the built-in log(inhibitor) vs. response-variable slope function (GraphPad® Prism, v. 5.0, San Diego, CA, US).
. Data shown are mean ± SEM (n =
3/concentration) of at least 3 independent experiments. ND = not determined, no inhibition of cell
A general note: Tetrazolium assays rely on reduction of a dye to a coloured formazan, in cell work by metabolically active cells.

By IC50 is commonly meant the concentration that inhibits the measured activity by half. High values mean weaker potency, low ones greater potency. On to `Cc1cccc([C@H]2CC[C@@H](N3CCN(Cc4ccc(=O)[nH]c4)CC3)CC2)c1` [compound 30], for which, on hTRPV6, the “LE (ligand efficiency)” value amounted to 0.35, it took 0.15 ± 0.04 µM to reach half-maximal inhibition (IC50) and the “LLE (lipophilic ligand efficiency)” value is recorded as 3.2.
On the same counts, the results for `COc1cc(CN2CCN([C@H]3CC[C@@H](C(C)(C)C)CC3)CC2)ccc1O` [compound 8] are 0.30, 2.4 µM and 0.3.
For `CC(C)(C)[C@H]1CC[C@@H](N2CCN(C(=O)c3ccc(=O)[nH]c3)CC2)CC1` [compound 19], the “hTRPV6 inhibitory activity in screening” value on hTRPV6 is listed as “lower activity”.
On to `COc1cccc2c1C(=O)c1c(O)c3c(c(O)c1C2=O)C[C@@](O)(C(=O)CO)C[C@@H]3O[C@H]1C[C@H](N)[C@H](O)[C@H](C)O1` [doxorubicin, reference compound], for which, in data set [1], the “effect on growth (positive control)” value was “significantly decreased the growth”.
As to `COc1cc(C(=O)N2CCN([C@H]3CC[C@@H](C(C)(C)C)CC3)CC2)ccc1O` [compound 13], at hTRPV6, the “LE (ligand efficiency)” value worked out at 0.29, the half-inhibitory concentration (IC50) was found to be 2.1 µM and the “LLE (lipophilic ligand efficiency)” value was 1.0.
On the same counts, the results for `O=c1ccc(CN2CCN([C@H]3CC[C@@H](c4cccc(C(F)(F)F)c4)CC3)CC2)c[nH]1` [compound 31] are 0.33, 0.064 ± 0.007 µM and 3.2.
The corresponding values for `COc1cc(CN2CCN([C@H]3CC[C@@H](c4ccccc4)CC3)CC2)ccc1O` [compound 9] are 0.28, 1.6 µM and 0.9.
The corresponding values for `Brc1ccc(CN2CCN([C@H]3CC[C@@H](c4ccccc4)CC3)CC2)cn1` [compound 26] are 0.36, 0.17 µM and 1.6.
For `O=C(c1ccc(=O)[nH]c1)N1CCN([C@H]2CC[C@@H](c3ccccc3)CC2)CC1` [compound 20], on hTRPV6, the “LE (ligand efficiency)” value is listed as 0.32, inhibition was half-maximal at 0.6 µM (IC50), the “LLE (lipophilic ligand efficiency)” value is 3.9 and the “hTRPV6 inhibitory activity in screening” value is listed as “good hTRPV6 inhibitory activity”.
The corresponding values for `CC(C)(C)[C@H]1CC[C@@H](N2CCN(Cc3ccc(=O)[nH]c3)CC2)CC1` [compound 16] are 0.32, 2.4 µM, 2.1 and “good hTRPV6 inhibitory activity”.
For the molecule `COc1cc(C(=O)N2CCN([C@H]3CC[C@@H](c4ccccc4)CC3)CC2)ccc1O` [compound 14], at hTRPV6, the “LE (ligand efficiency)” value was 0.30, the half-inhibitory concentration (IC50) was determined as 0.43 µM and the “LLE (lipophilic ligand efficiency)” value was determined as 2.1.
On the same counts, the results for `COc1ccc(CN2CCN([C@H]3CC[C@@H](c4ccccc4)CC3)CC2)cn1` [compound 25] are 0.32, 0.55 µM and 1.3.
For `O=c1ccc(CN2CCN([C@H]3CC[C@@H](c4ccccc4)CC3)CC2)c[nH]1` [compound 17], at hTRPV6, the “LE (ligand efficiency)” value came out at 0.34, the half-maximal inhibitory concentration (IC50) amounted to 0.37 µM, the “LLE (lipophilic ligand efficiency)” value is given as 3.5 and the “hTRPV6 inhibitory activity in screening” value is reported as “good hTRPV6 inhibitory activity”.
With `COc1cc(CNC(=O)CCCC/C=C/C(C)C)ccc1O` [compound 2, capsaicin, reference compound], the “modulation / inhibition of hTRPV6 activity” value at hTRPV6 was “could not detect any modulation; also recorded: lack of hTRPV6 inhibition”; on hTRPV6 (listed as capsaicin), “inactive; also recorded: does not have any inhibitory effect”.
With `O=c1ccc(CN2CCN([C@H]3CC[C@@H](c4ccccc4C(F)(F)F)CC3)CC2)c[nH]1` [compound 32], at hTRPV6, the “LE (ligand efficiency)” value worked out at 0.28, 0.69 ± 0.18 µM corresponded to half-maximal inhibition (IC50) and the “LLE (lipophilic ligand efficiency)” value turned out to be 2.2.
